Assay results published in patent publication EP1140895B1, “THIOPYRAN COMPOUNDS AS INHIBITORS OF MMP” (FUJISAWA PHARMACEUTICAL CO., LTD., priority 1999, dated 2000).

Molecular target: T1, human MMP-13 (Homo sapiens, UniProt P45452)
T1 construct: truncated form of human recombinant MMP-13; purchased Chondrex, USA
Assay: Inhibitory activity of human MMP-13
Assay type: biochemical
Settings: commercial kit, truncated form of human recombinant MMP-13, fluorogenic peptide substrate, 1 hour at 35°C
Experimental: The inhibitory potential of test compounds against human MMP-13 were assayed by using commercial kit (Chondrex, USA) contained truncated form of human recombinant MMP-13 and fluorogenic peptide substrate. Activity of human MMP-13 was determined by monitoring the degradation of fluorogenic peptide substrate after incubation for 1 hour at 35°C and estimated by measuring the fluorescence intensity of degraded peptide substrate at 495 nm (excitation) and 520 nm (emission).
Inhibitory activity of human MMP-13 as mentioned above.

- IC50: 2.2 nM
SMILES: O=C(CC1(c2ccc(Oc3ccc(Cl)cc3)cc2)CCCCS1(=O)=O)NO (single isomer, unassigned) [Example 15, (R or S)-(-)-2-[4-(4-chlorophenoxy)phenyl]-3,4,5,6-tetrahydro-N-hydroxy-2H-thiopyran-2-acetamide 1,1-dioxide]
